One data set deals with larval zebrafish. Description: Basic locomotor activity of larval zebrafish. The data set is classed as in vivo, zebrafish (Danio rerio). Particulars: 5 dpf larvae, 20 h incubation at maximum‐tolerated concentration (Figure 12), 30 min tracking. The method, then:
All experiments were conducted on zebrafish (Danio rerio) larvae up to 5 days post fertilization (dpf), therefore, in accordance with current European legislation, ethical permission to conduct assays was not required. However, housing and experimental procedures were performed in compliance with the National Institute of Health Guidelines for the Care and Use of Laboratory Animals and the European Union Directive of 22 September 2010 (2010/63/EU) on protecting animals used for scientific purposes. All efforts were taken to minimize larvae stress and suffering. Larvae were euthanized with an overdose of tricaine ([…]). The zebrafish facility of Experimental Medicine Centre (Medical University of Lublin, Poland) provided wild‐type zebrafish embryos of the AB strain. Embryos as well as larvae were maintained in Petri dishes filled with E3 embryo medium, i.e., fish water (1.5 mM HEPES, pH 7.6; 17.4 mM NaCl; 0.21 mM KCl; 0.12 mM MgSO4; and 0.18 mM Ca (NO3)2). These were maintained under standard, generally accepted housing conditions (temperature 28.5 ± 1 °C, light to dark cycle 14 h to 10 h). Plastic transfer Pasteur pipettes were used to replace medium each day. Before the respective behavioral tests were conducted, larvae at 4 dpf were incubated for 20 h in different arylpiperazine derivatives solutions of maximum‐tolerated concentrations (MCTs), determined during toxicological screening.^[ [30], [32] ^] The control group was exposed to equivalent concentration of DMSO solvent. All locomotor tracking tests were performed at the same period of the day. Basic locomotor activity was measured using an automated tracking device, Daniovision by Noldus, and the total distance traveled was quantified using EthoVision XT software of the same company (Wageningen, the Netherlands) over a 30 min long observation period. Larvae were placed in 48‐well plates, individually (single larva per well), using a plastic transfer pipette. The PTZ‐induced hyperlocomotion (acute seizure assay) was assessed in 5 dpf larval zebrafish (after 20 h incubation with tested derivatives at MCTs). After the incubation, larvae were exposed to an acute dose of PTZ (20 mM). Larval locomotor activity after exposure to PTZ was tracked (Daniovision by Noldus) over 30 mins, after 5‐mins of habituation. Additionally, larval locomotor activity was assessed in response to alternate lighting conditions (lights ON vs. lights OFF). Light intensity under illumination was 100%. Challenge to light/dark conditions lasted 10 min each, twice repeated.^[ [52] ^] Similarly, the data were recorded as the distance traveled (mm) by larvae when exposed to alternating lightning. All experiments were repeated three times, and data pooled. For statistical analysis and figure generation, GraphPad Prism 9.3.1 version (San Diego, CA, USA) was employed, and Grubbs test was applied to identify outliers. Shapiro‐Wilk test was then employed to assess whether data are normally distributed. Moreover, nonparametric ANOVA, Kruskal–Wallis, or Friedman (for repeated measures) test was used to analyze data, with statistical significance level set at p < 0.05. Data are presented as median or median + individual values.

In the next data set the target is T1, 5‐HT1A receptor (Rattus norvegicus, UniProt P19327).
T1 construct: 80 μg of hippocampal membrane suspension (the 5‐HT1A assay); from tissue; host or cells: rat (Sprague-Dawley) hippocampus membranes
T1 sequence (P19327 1-422): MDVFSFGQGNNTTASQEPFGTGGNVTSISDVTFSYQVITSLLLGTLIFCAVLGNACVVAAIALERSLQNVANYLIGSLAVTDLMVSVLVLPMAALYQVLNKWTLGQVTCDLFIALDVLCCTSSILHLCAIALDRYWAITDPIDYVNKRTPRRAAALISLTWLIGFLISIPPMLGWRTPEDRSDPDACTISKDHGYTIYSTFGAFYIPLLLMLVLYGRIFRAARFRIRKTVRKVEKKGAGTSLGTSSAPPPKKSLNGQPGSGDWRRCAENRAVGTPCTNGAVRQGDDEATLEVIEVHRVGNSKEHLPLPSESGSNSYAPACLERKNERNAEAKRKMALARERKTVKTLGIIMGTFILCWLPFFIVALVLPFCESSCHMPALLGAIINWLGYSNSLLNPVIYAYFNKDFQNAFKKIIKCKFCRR
The experiment in a line: 5‐HT1A competition binding assay ([3H]8‐OH‐DPAT, hippocampal membranes). Particulars: 1 nM [3H]8‐OH‐DPAT. The protocol: Sprague‐Dawley rats were sacrificed by isoflurane overdose. Brains were rapidly removed and placed on ice. Hippocampi (for the 5‐HT1A assay) and frontal cortices (for the 5‐HT2A and 5‐HT2C assays) were dissected on a Petri dish. The tissue from 10 rats was homogenized in 30 vol. homogenization buffer (50 mM Tris–HCl, […], 1 mM EDTA, 1 mM dithiothreitol) with a handheld Teflon‐glass homogenizer. The homogenate was centrifuged at 48,000 × g at 4 °C for 15 min. The pellet was suspended and homogenized in the homogenization buffer and incubated for 10 min. at 36 °C. The centrifugation and suspension steps were repeated twice. The final pellet was homogenized in 5 vol. 50 mM Tris–HCl, pH = 7.4 buffer and stored at −80 °C for no longer than 6 months. […] For the 5‐HT2C assay, compounds were incubated in duplicate with 5 nM [^3H]mesulergine (specific activity: 80.2 Ci mmol^−1, Revvity, MA, USA) for 60 min. at 36 °C in a 50 mM Tris‐HCl (pH 7.4) buffer, supplemented with 5 mM MgCl2, 140 mM NaCl, 1 mM DTT, 1 mM CaCl2, 10 μM pargyline and 160μg of the frontal cortex membrane suspension. Non‐specific binding was determined with 10μM serotonin. The final DMSO concentration in the assay was 5%. After incubation, the reaction mixture was deposited onto Unifilter GF/C plates (Revvity, MA, USA) presoaked in 0.4% PEI (or 0.4% PEI and 0.5% Triton X‐100 for the 5‐HT2C assay) for 1 h with the FilterMate‐96 Harvester (Revvity, MA, USA). Then, each well was washed with 2 mL of 50 mM Tris–HCl (pH 7.4) buffer to separate bound ligands from free and the plates were left to dry overnight. Then, 35μl of Microscint‐20 scintillation fluid (Revvity, MA, USA) was added to each filter well and left to equilibrate for 2h. Filter‐bound radioactivity was counted in a MicroBeta2 LumiJet scintillation counter (Revvity, MA, USA). Binding curves were fitted with one site non‐linear regression. Binding affinity (pKi and Ki) for each compound was calculated from the […] values with the Cheng‐Prusoff equation from two separate experiments.

The mark [1] stands for this setting: 95% CI in brackets, read-out: 5‐HT1A Ki (95% CI).
Where [2] appears, read: read-out: 5‐HT1A pKi (converted).

This note sets out measurements from publication PMC12321279, “Novel 4,5‐Dihydrothiazole‐Phenylpiperazine Derivatives: Synthesis, Docking Studies and Pharmacological Evaluation as Serotonergic Agents” (Chemmedchem, 2025).

Like-named read-outs stand apart in the source and are kept apart here.

Regarding `O=C(NCCCN1CCN(c2ccccc2C2=NCCS2)CC1)c1ccccn1` [FG‐1, N‐(3‐(4‐(2‐(4,5‐dihydrothiazol‐2‐yl) phenyl) piperazin‐1‐yl) propyl) picolinamide], the “basic locomotor activity (total distance traveled)” value (“basic locomotor activity” below) in the data set on larval zebrafish is recorded as “decreased”. Also, the Ki at 5‐HT1A receptor (setting [1]) was found to be 2350 nM.

As for `O=C(NCCCN1CCN(c2cccc(C3=NCCS3)c2)CC1)c1ccccn1` [FG‐2, N‐(3‐(4‐(3‐(4,5‐dihydrothiazol‐2‐yl) phenyl) piperazin‐1‐yl) propyl) picolinamide], the Ki on 5‐HT1A receptor (setting [1]) stood at 1860 nM.

Regarding `O=C(NCCCN1CCN(c2ccccc2C2=NCCS2)CC1)c1ccncc1` [FG‐4, N‐(3‐(4‐(2‐(4,5‐dihydrothiazol‐2‐yl) phenyl) piperazin‐1‐yl) propyl) isonicotinamide], the “basic locomotor activity” value with larval zebrafish is given as “slightly decreased larval activity”. Besides, the Ki on 5‐HT1A receptor (setting [1]) was 1540 nM.

`O=C(NCCCN1CCN(c2cccc(C3=NCCS3)c2)CC1)c1ccncc1` [FG‐5, N‐(3‐(4‐(3‐(4,5‐dihydrothiazol‐2‐yl) phenyl) piperazin‐1‐yl) propyl) isonicotinamide]: the Ki at 5‐HT1A receptor (setting [1]) is 1100 nM.

On to `O=C(NCCCN1CCN(c2ccc(C3=NCCS3)cc2)CC1)c1ccncc1` [FG‐6, N‐(3‐(4‐(4‐(4,5‐dihydrothiazol‐2‐yl) phenyl) piperazin‐1‐yl) propyl) isonicotinamide], for which, in the data set with larval zebrafish, the “basic locomotor activity” value is recorded as “slightly decreased larval activity”. Moreover, the Ki on 5‐HT1A receptor (setting [2]) is 26300 nM.

Regarding `O=C1C2C3C=CC(C3)C2C(=O)N1OCCCN1CCN(c2ccccc2C2=NCCS2)CC1` (stereo not drawn) [FG‐7, 2‐(3‐(4‐(2‐(4,5‐dihydrothiazol‐2‐yl) phenyl) piperazin‐1‐yl) propoxy)‐3a,4,7,7a‐tetrahydro‐1 H‐4,7‐methanoisoindole‐1,3(2 H)‐dione], in the data set with larval zebrafish, the “basic locomotor activity” value is “slightly decreased larval activity”. Further, at 5‐HT1A receptor (setting [1]), the Ki turned out to be 54 nM.

On to `O=C1C2C3C=CC(C3)C2C(=O)N1OCCCN1CCN(c2cccc(C3=NCCS3)c2)CC1` (stereo not drawn) [FG‐8, 2‐(3‐(4‐(3‐(4,5‐dihydrothiazol‐2‐yl) phenyl) piperazin‐1‐yl) propoxy)‐3a,4,7,7a‐tetrahydro‐1H‐4,7‐methanoisoindole‐1,3(2H)‐dione], for which the “basic locomotor activity” value in the data set with larval zebrafish is “slightly decreased larval activity”. Moreover, the Ki at 5‐HT1A receptor (setting [1]) was 710 nM; on 5‐HT1A receptor (setting [2]), 724 nM.

For the molecule `O=C(NCCCN1CCN(c2ccc(C3=NCCS3)cc2)CC1)C1CC2C=CC1C2` (stereo not drawn) [FG‐18, Endo‐ N‐(3‐(4‐(4‐(4,5‐dihydrothiazol‐2‐yl)phenyl)piperazin‐1‐yl)propyl) bicyclo[2.2.1]hept‐5‐ene‐2‐carboxamide], the “basic locomotor activity” value in the data set with larval zebrafish is reported as “decreased”. In addition, at 5‐HT1A receptor (setting [2]), the Ki is 20000 nM.
